These results are taken from PMC3531393, “In Vitro Evaluation of ESE-15-ol, an Estradiol Analogue with Nanomolar Antimitotic and Carbonic Anhydrase Inhibitory Activity” (PLoS ONE, 2012).

The Ki is a dissociation constant, usually derived from enzyme kinetics or from competition with a known ligand. High values mean lower affinity, low ones higher affinity.

For this assay, the target named is T1, carbonic anhydrase II (CAII) (Homo sapiens, UniProt P00918).
T1 construct: gene CA2; wild-type
Briefly: […] exchange between CO2 and water by membrane-inlet mass spectrometry; Henderson tight-binding analysis. The assay is classed as biochemical.

`CCc1cc2c(cc1OS(N)(=O)=O)CC[C@@H]1C2CC[C@]2(C)[C@@H](O)C=C[C@@H]12` (stereo partly shown) [ESE-15-ol, 2-ethyl-3-O-sulphamoyl-estra-1,3,5(10),15-tetraen-17-ol] yielded a Ki of 167 ± 19 nM.
